Columns and labels:
Assay type in all cases: cell-based
RXF 393 = assay: NCI 60-cell line protocol, RXF 393 (renal); conditions: Homo sapiens, 48 h, two days drug exposure, SRB endpoint, read-out: GI-50 value
Description: (§1) Samples containing exemplary compounds of formulas (Ia)-(Ig) were tested in the standard National Cancer Institute 60-cell line protocol. First, they were tested against all 60 cell lines in a single final concentration of 10 micromolar. Then, they were separately tested in five 10-fold dilutions. The drug exposure was two days, with an SRB endpoint.

786-0 = assay: NCI 60-cell line protocol, 786-0 (renal); conditions: Homo sapiens, 48 h, two days drug exposure, SRB endpoint, read-out: GI-50 value
Description: as §1

ACHN = assay: NCI 60-cell line protocol, ACHN (renal); conditions: Homo sapiens, 48 h, two days drug exposure, SRB endpoint, read-out: GI-50 value
Description: as §1

BT-549 = assay: NCI 60-cell line protocol, BT-549 (breast); conditions: Homo sapiens, 48 h, two days drug exposure, SRB endpoint, read-out: GI-50 value
Description: as §1

OVCAR-8 = assay: NCI 60-cell line protocol, OVCAR-8 (ovarian); conditions: Homo sapiens, 48 h, two days drug exposure, SRB endpoint, read-out: GI-50 value
Description: as §1

HS 578T = assay: NCI 60-cell line protocol, HS 578T (breast); conditions: Homo sapiens, 48 h, two days drug exposure, SRB endpoint, read-out: GI-50 value
Description: as §1

A498 = assay: NCI 60-cell line protocol, A498 (renal); conditions: Homo sapiens, 48 h, two days drug exposure, SRB endpoint, read-out: GI-50 value
Description: as §1

UO-31 = assay: NCI 60-cell line protocol, UO-31 (renal); conditions: Homo sapiens, 48 h, two days drug exposure, SRB endpoint, read-out: GI-50 value
Description: as §1

[1] = tested on: cancer cell lines within the NCI 60 cell assay; assay: NCI 60 cell assay, cancer cell line panel; conditions: Homo sapiens, average over the nine cell lines of Table 1, read-out: Average GI-50
Description: as §1

SN12C = assay: NCI 60-cell line protocol, SN12C (renal); conditions: Homo sapiens, 48 h, two days drug exposure, SRB endpoint, read-out: GI-50 value
Description: as §1

| Compound | GI50 (RXF 393) | GI50 (786-0) | GI50 (ACHN) | GI50 (BT-549) | GI50 (OVCAR-8) | GI50 (HS 578T) | GI50 (A498) | GI50 (UO-31) | GI50 [1] | GI50 (SN12C) |
| --- | --- | --- | --- | --- | --- | --- | --- | --- | --- | --- |
| C[C@@H]1CC[C@@H]2C1[C@H](OC(=O)/C=C/c1ccccc1)C1(C3CCCCC3)C[C@@H](NC(=O)CO)C2(C)O1 (stereo partly shown) [(Ia)] | 3310 nM | 14800 nM | 3470 nM | 13200 nM | 16200 nM | 2820 nM | 2190 nM | 4790 nM | 8030 nM | 11500 nM |
| C[C@@H]1CC[C@@H]2C1[C@H](OC(=O)/C=C/c1ccccc1)[C@]1(c3ccccc3)C[C@@H](OC(=O)CO)[C@@]2(C)O1 (stereo partly shown) [(Ic)] | 251 nM | 11700 nM | 178 nM | 407 nM | 6760 nM | 112 nM | 191 nM | 155 nM | 2260 nM | 537 nM |
| CC1CC[C@@H]2C1[C@H](OC(=O)/C=C/C1CCCCC1)[C@]1(C3CCCCC3)C[C@@H](OC(=O)CO)[C@@]2(C)O1 (stereo partly shown) [(Id)] | 34 nM | 12000 nM | 22 nM | 55 nM | 10700 nM | 16 nM | 21 nM | 29 nM | 2550 nM | 32 nM |
| C[C@@H]1CC[C@@H]2C1[C@H](OC(=O)/C=C/c1ccccc1)[C@]1(C3CCCCC3)C[C@@H](OC(=O)CO)[C@@]2(C)O1 (stereo partly shown) [(Ib)] | 78 nM | 1180 nM | 10 nM | 34 nM | 513 nM | 24 nM | 19 nM | 15 nM | 217 nM | 85 nM |
| Cc1c(C(=O)O[C@H]2C3C(C)CC[C@H]3[C@]3(C)O[C@@]2(C2CCCCC2)C[C@H]3OC(=O)CO)ccc2ccccc12 (stereo partly shown) [(Ig)] | 166 nM | 6460 nM | 59 nM | 5250 nM | 6610 nM | 17 nM | 17 nM | 407 nM | 2130 nM | 158 nM |
| CC1CC[C@@H]2C1[C@H](OC(=O)c1ccc3ccccc3c1)[C@]1(C3CCCCC3)C[C@@H](OC(=O)CO)[C@@]2(C)O1 (stereo partly shown) [(If)] | 71 nM | 5370 nM | 19 nM | 71 nM | 5620 nM | 23 nM | 19 nM | 40 nM | 1250 nM | 52 nM |
| C/C(=C\C(=O)O[C@H]1C2C(C)CC[C@H]2[C@]2(C)O[C@@]1(C1CCCCC1)C[C@H]2OC(=O)CO)c1ccccc1 (stereo partly shown) [(Ie)] | 79 nM | 5130 nM | 15 nM | 120 nM | 4270 nM | 10 nM | 16 nM | 62 nM | 1080 nM | 23 nM |
